Data on 2 compounds can be found in patent US9572893B2, “Nanocomplex containing cationic peptide for biomolecule delivery” (Council of Scientific and Industrial Research, priority 2012, dated 2017).

Where a SMILES comes first, the peptide text is derived from it.

Common to all, as to type: cell-based
Data set [1] in a line: Cytotoxicity of nanocomplex using MTT assay. Particulars: CHO-K1 cells, charge ratio 10.0, treated 4 hours; read-out: cell viability. Here is the method:
(§1) FIG. 3: Cell viability measured via MTT assay and CellTitreGLO assay. CHO-K1 cells and HACAT cells were treated with arginines-histidine-cysteine based peptides comprising nanocomplexes (at charge ratio 10.0) and a Lipofectamine™/Cellfectin™/Superfect™-DNA complex for 4 hours and cell viability was assessed after 24 hours. Untreated cells are taken as control and their absorbance (in the presence of MTT reagent and cell titre GLO reagent) is set as 100% and relative decrease in absorbance is taken as measure of cell viability.
(§2) CHO-K1 cells were seeded at density of 7000 cells per well in 96 well plate format in Hams F12K media containing 10% FBS at 37° C. and 5% CO2 in humidified incubator. After 24 hours cells were washed with serum free media and treated with different nanocomplex at Z=10.0 (in quadruplets) for 4 hours, keeping DNA concentration 200 ng/well. The viability was assayed after 4 hrs and 24 hrs (in the latter case nanocomplex containing media was replaced with complete media after 4 hrs) of transfection. Briefly 100 ul of MTT reagent (0.5 mg/ml) was added to each well and incubated at 37° C. for 2 hrs to allow formation of formazan crystals. […] Following incubation 100 ul MTT detergent buffer (0.5 ml 10% SDS and 0.06 ml 12N HCl in 10 ml isopropanol) was added to each well and crystals were dissolved by gentle shaking for 30 mins. Finally the absorbance was recorded at 550 nm and 670 nm (to negate debris) along with the blank using ELISA plate reader. The percentage viability was calculated by Treated wells (OD550−OD670)/Untreated well (OD550−OD670)*100. The average of two independent experiments is plotted where each treatment is performed in quadruplets.
For orientation: Tetrazolium dyes change colour on reduction, which living cells bring about.

The subject of the next data set is CHO-K1 cells. As to the kind of experiment: Cytotoxicity of nanocomplex using MTT assay. The method, then:
as §1, §2

Data set [2] is described as follows: Cytotoxicity estimation using Celltitre GLO method. Particulars: human; Hacat cells, charge ratio 10.0, treated 4 hours; read-out: cell viability. The method, then:
as §1
(§3) The experiment was performed in 96 well plate format wherein the Hacat cells were seeded at 50000 cells per well in DMEM-F12 media containing 10% FBS at 37° C. and 5% CO2 in humidified incubator. After 24 hours cells were washed with serum free media and treated with nanocomplex at Z=10.0 (in quadruplets) for 4 hours, keeping DNA concentration 200 ng/well. The viability was assayed after 4 hrs and 24 hrs (in the latter case nanocomplex containing media was replaced with complete media after 4 hrs) of transfection. Initially the plate was equilibrated for 30 mins at RT followed by addition of 100 ul of cell titre GLO reagent with continuous shaking on rotor for 2 mins to allow cell lysis. The plate was then kept in dark for 10 mins at RT for stabilization of the luminescence signal. The reading was recorded on Tecan system and plotted as % cell viability.

For another data set, the system named is Hacat cells. As to the kind of experiment: Cytotoxicity estimation using Celltitre GLO method. Here is the method: as §1, §3
Data set [3] relates to CHO-K1 cells and HACAT cells. As to the kind of experiment: Cell viability / cytotoxicity, cell line not stated (MTT and CellTitreGLO). Particulars: cell line not stated. The method, then: as §1
CHO-K1 cells were seeded at density of 7000 cells per well in 96 well plate format in Hams F12K media containing 10% FBS at 37° C. and 5% CO2 in humidified incubator. […] Finally the absorbance was recorded at 550 nm and 670 nm (to negate debris) along with the blank using ELISA plate reader. The percentage viability was calculated by Treated wells (OD550−OD670)/Untreated well (OD550−OD670)*100. […]
The experiment was performed in 96 well plate format wherein the Hacat cells were seeded at 50000 cells per well in DMEM-F12 media containing 10% FBS at 37° C. and 5% CO2 in humidified incubator. […] The plate was then kept in dark for 10 mins at RT for stabilization of the luminescence signal. The reading was recorded on Tecan system and plotted as % cell viability.

A word on the viability: it is a per cent measure of how many cells are alive, often set against a control. `N=C(N)NCCC[C@H](NC(=O)[C@H](Cc1c[nH]cn1)NC(=O)[C@H](CCCNC(=N)N)NC(=O)[C@H](Cc1c[nH]cn1)NC(=O)[C@H](CCCNC(=N)N)NC(=O)[C@H](Cc1c[nH]cn1)NC(=O)[C@H](CCCNC(=N)N)NC(=O)[C@H](Cc1c[nH]cn1)NC(=O)[C@H](CCCNC(=N)N)NC(=O)[C@H](Cc1c[nH]cn1)NC(=O)[C@H](CCCNC(=N)N)NC(=O)[C@H](Cc1c[nH]cn1)NC(=O)[C@H](CCCNC(=N)N)NC(=O)[C@H](Cc1c[nH]cn1)NC(=O)[C@H](CCCNC(=N)N)NC(=O)[C@H](CCCNC(=N)N)NC(=O)[C@@H](N)CS)C(=O)N[C@@H](CS)C(=O)O` [CR(RH)7RC, CRRHRHRHRHRHRHRHRC] (H-CRRHRHRHRHRHRHRHRC-OH): the results for the viability at 4 h in data set [1] and in data set [2] were 70 to 80% and 80 to 90%, respectively. Besides, the “cell viability compared to Cellfectin and Superfect transfection agents” value in the data set with CHO-K1 cells is given as “comparable”. In the data set with Hacat cells, the “cell viability compared to Cellfectin” value was “comparable”. For the same compound, the cytotoxicity result in data set [3] is recorded as “minimal”.

Take `N=C(N)NCCC[C@H](NC(=O)[C@H](CCCNC(=N)N)NC(=O)[C@H](CCCNC(=N)N)NC(=O)[C@H](CCCNC(=N)N)NC(=O)[C@H](Cc1c[nH]cn1)NC(=O)[C@H](Cc1c[nH]cn1)NC(=O)[C@H](Cc1c[nH]cn1)NC(=O)[C@H](Cc1c[nH]cn1)NC(=O)[C@H](CCCNC(=N)N)NC(=O)[C@H](CCCNC(=N)N)NC(=O)[C@H](CCCNC(=N)N)NC(=O)[C@H](CCCNC(=N)N)NC(=O)[C@H](CCCNC(=N)N)NC(=O)[C@@H](N)CS)C(=O)N[C@@H](Cc1c[nH]cn1)C(=O)N[C@@H](Cc1c[nH]cn1)C(=O)N[C@@H](Cc1c[nH]cn1)C(=O)N[C@@H](CS)C(=O)O` [CR5H4R4H3C, CRRRRRHHHHRRRRHHHC] (H-CRRRRRHHHHRRRRHHHC-OH): the viability at 4 h in data set [1] and in data set [2] was 80 to 90% in each case. Besides, the “cell viability compared to Cellfectin and Superfect transfection agents” value in the data set on CHO-K1 cells is on record as “comparable”. Also, the “cell viability compared to Cellfectin” value in the data set on Hacat cells is “comparable”. In addition, in data set [3], the cytotoxicity entry is reported as “minimal”.
